Assay results published in patent US11180484B2, “Pyrazole derivatives as plasma kallikrein inhibitors” (KALVISTA PHARMACEUTICALS LIMITED, priority 2016, dated 2021).
pIC50: −log10 of the molar value.

Key:
Assay type in all cases: biochemical
[1] = target: Human plasma kallikrein (Homo sapiens (Human), UniProt P03952); experiment: Determination of the IC50 for plasma kallikrein; conditions: 25° C., substrate H-DPro-Phe-Arg-AFC; read-out: IC50 (human PKal)
Protocol: (§1) Human plasma kallikrein (Protogen) was incubated at 25° C. with the fluorogenic substrate H-DPro-Phe-Arg-AFC and various concentrations of the test compound. Residual enzyme activity (initial rate of reaction) was determined by measuring the change in […] at 410 nm and the IC50 value for the test compound was determined.

[2] = target: Human KLK1 (Homo sapiens (Human), UniProt P06870); experiment: Determination of the IC50 for KLK1; conditions: 25° C., substrate H-DVal-Leu-Arg-AFC
Protocol: as §1, with “KLK1 (Callbiochem)” for “plasma kallikrein (Protogen)”, “H-DVal-Leu-Arg-AFC” for “H-DPro-Phe-Arg-AFC”

[3] = target: Human FXIa (Homo sapiens (Human), UniProt P03951); experiment: Determination of the % inhibition / IC50 for FXIa; conditions: for pIC50: 25° C., substrate Z-Gly-Pro-Arg-AFC
Protocol: FXIa inhibitory activity in vitro was determined using standard published methods (see e.g. Johansen et al., Int. J. Tiss. Reac. 1986, 8, 185; Shori et al., Biochem. Pharmacol., 1992, 43, 1209; Sturzebecher et al., Biol. Chem. Hoppe-Seyler, 1992, 373, 1025). […]

[4] = target: Human Factor XIIa (Homo sapiens (Human), UniProt P00748); experiment: Factor XIIa inhibitory activity in vitro; conditions: 25° C., substrate H-DPro-Phe-Arg-AFC; read-out: IC50 (human FXIIa)
Protocol: as §1, with “Factor XIIa (Enzyme Research Laboratories)” for “plasma kallikrein (Protogen)”

Human KLK1, sequence (P06870 25-262): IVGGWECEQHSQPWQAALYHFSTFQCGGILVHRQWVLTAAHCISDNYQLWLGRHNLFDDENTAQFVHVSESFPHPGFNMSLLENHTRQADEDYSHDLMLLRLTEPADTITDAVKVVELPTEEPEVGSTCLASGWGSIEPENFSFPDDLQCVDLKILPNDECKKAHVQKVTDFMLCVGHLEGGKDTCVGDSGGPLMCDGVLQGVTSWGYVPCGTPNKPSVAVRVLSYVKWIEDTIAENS
Human plasma kallikrein, sequence (P03952 391-638): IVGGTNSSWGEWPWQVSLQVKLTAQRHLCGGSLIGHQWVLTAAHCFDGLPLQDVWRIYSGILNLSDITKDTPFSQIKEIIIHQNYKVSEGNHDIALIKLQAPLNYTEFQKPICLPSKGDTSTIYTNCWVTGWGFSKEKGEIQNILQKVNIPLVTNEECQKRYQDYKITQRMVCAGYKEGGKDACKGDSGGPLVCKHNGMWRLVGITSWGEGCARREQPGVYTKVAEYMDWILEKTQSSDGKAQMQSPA
Human plasma kallikrein, sequence (P03952 20-390): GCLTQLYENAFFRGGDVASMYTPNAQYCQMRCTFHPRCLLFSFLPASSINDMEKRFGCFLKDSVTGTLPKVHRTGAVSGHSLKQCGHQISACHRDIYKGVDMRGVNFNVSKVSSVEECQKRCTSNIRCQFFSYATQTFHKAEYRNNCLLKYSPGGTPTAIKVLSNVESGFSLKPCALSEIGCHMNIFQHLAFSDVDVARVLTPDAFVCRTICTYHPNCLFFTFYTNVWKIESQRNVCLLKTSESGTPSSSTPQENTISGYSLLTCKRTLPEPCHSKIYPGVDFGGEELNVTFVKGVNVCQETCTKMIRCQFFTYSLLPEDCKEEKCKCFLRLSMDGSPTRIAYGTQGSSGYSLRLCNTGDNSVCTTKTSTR
Human Factor XIIa, sequence (P00748 373-615): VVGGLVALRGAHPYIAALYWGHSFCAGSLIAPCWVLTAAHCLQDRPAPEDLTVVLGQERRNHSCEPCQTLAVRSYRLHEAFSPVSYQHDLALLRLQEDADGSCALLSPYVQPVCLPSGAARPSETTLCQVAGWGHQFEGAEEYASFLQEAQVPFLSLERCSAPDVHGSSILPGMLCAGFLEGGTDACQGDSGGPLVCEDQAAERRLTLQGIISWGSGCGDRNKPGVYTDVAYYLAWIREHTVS
Human FXIa, sequence (P03951 388-625): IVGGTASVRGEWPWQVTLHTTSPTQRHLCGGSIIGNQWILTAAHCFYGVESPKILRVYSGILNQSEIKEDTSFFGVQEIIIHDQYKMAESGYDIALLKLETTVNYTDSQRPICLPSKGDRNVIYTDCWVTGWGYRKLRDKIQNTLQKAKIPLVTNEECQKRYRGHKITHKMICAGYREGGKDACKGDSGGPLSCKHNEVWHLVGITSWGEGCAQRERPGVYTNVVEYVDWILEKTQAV
Human FXIa, sequence (P03951 19-387): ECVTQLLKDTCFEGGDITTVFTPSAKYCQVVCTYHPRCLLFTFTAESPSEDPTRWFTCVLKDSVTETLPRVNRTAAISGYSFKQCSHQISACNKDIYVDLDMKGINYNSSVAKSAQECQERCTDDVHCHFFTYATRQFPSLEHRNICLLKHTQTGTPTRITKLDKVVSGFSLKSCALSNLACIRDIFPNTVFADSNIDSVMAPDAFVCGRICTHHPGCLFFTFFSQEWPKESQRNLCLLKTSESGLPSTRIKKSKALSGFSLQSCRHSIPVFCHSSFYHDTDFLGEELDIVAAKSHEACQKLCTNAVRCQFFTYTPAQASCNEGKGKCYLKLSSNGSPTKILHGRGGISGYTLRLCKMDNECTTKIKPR

COCc1nn(Cc2ccc(Cn3ccccc3=O)cc2)cc1C(=O)NCc1cc(OC)ncn1 [Example 4, 3-(methoxymethyl)-N-[(6-methoxypyrimidin-4-yl)methyl]-1-({4-[(2-oxopyridin-1-yl)methyl]phenyl}methyl)pyrazole-4-carboxamide]
pIC50 [1]: 5.64 | pIC50 [2]: < 5.40 | pIC50 [3]: < 4.40 | pIC50 [4]: < 5.40

COCc1nn(Cc2ccc(Cn3ccccc3=O)cc2)cc1C(=O)NCc1cc(OC)ncc1C#N [Example 8, N-[(5-cyano-2-methoxypyridin-4-yl)methyl]-3-(methoxymethyl)-1-({4-[(2-oxopyridin-1-yl)methyl]phenyl}methyl)pyrazole-4-carboxamide]
pIC50 [1]: 6.79 | pIC50 [2]: < 5.40 | pIC50 [3]: < 4.40 | pIC50 [4]: < 5.40

COCc1nn(Cc2ccc(Cn3ccccc3=O)cc2)cc1C(=O)NCc1nccc(OC)n1 [Example 10, 3-(methoxymethyl)-N-[(4-methoxypyrimidin-2-yl)methyl]-1-({4-[(2-oxopyridin-1-yl)methyl]phenyl}methyl)pyrazole-4-carboxamide]
pIC50 [1]: 5.61 | pIC50 [2]: < 4.40 | pIC50 [3]: < 4.40 | pIC50 [4]: < 4.40

COCc1nn(Cc2ccc(Cn3ccccc3=O)cc2)cc1C(=O)NCc1ncc(C)c(OC)c1C [Example 11, N-[(4-methoxy-3,5-dimethylpyridin-2-yl)methyl]-3-(methoxymethyl)-1-({4-[(2-oxopyridin-1-yl)methyl]phenyl}methyl)pyrazole-4-carboxamide]
pIC50 [1]: 7.46 | pIC50 [2]: < 4.40 | pIC50 [3]: < 4.40 | pIC50 [4]: < 4.40

COCc1nn(Cc2ccc(Cn3ccccc3=O)cc2)cc1C(=O)NCc1ncccc1C#N [Example 13, N-[(3-cyanopyridin-2-yl)methyl]-3-(methoxymethyl)-1-({4-[(2-oxopyridin-1-yl)methyl]phenyl}methyl)pyrazole-4-carboxamide]
pIC50 [1]: 5.53 | pIC50 [2]: < 5.40 | pIC50 [3]: < 4.40 | pIC50 [4]: < 5.40

COCc1nn(Cc2ccc(Cn3ccccc3=O)cc2)cc1C(=O)NCc1ncc(Cl)cc1C#N [Example 16, N-[(5-chloro-3-cyanopyridin-2-yl)methyl]-3-(methoxymethyl)-1-({4-[(2-oxopyridin-1-yl)methyl]phenyl}methyl)pyrazole-4-carboxamide]
pIC50 [1]: 6.73 | pIC50 [2]: < 4.40 | pIC50 [3]: < 4.40 | pIC50 [4]: < 4.40

COCc1nn(Cc2ccc(Cn3ccccc3=O)cc2)cc1C(=O)NCc1ncc(Cl)cc1F [Example 17, N-[(5-chloro-3-fluoropyridin-2-yl)methyl]-3-(methoxymethyl)-1-({4-[(2-oxopyridin-1-yl)methyl]phenyl}methyl)pyrazole-4-carboxamide]
pIC50 [1]: 6.84 | pIC50 [2]: < 4.40 | pIC50 [3]: < 4.40 | pIC50 [4]: < 4.40

COCc1nn(Cc2ccc(Cn3ccccc3=O)cc2)cc1C(=O)NCc1cc(OC)c(C)cn1 [Example 20, N-[(4-methoxy-5-methylpyridin-2-yl)methyl]-3-(methoxymethyl)-1-({4-[(2-oxopyridin-1-yl)methyl]phenyl}methyl)pyrazole-4-carboxamide]
pIC50 [1]: 5.49 | pIC50 [2]: < 4.40 | inhibition at 40 µM ([3]; 40 μM test compound, read-out: % Inhibition @ 40 μM (human FXIa)): 0% | pIC50 [3]: < 4.40 | pIC50 [4]: < 4.40

COCc1nn(Cc2ccc(Cn3ccccc3=O)cc2)cc1C(=O)NCc1ncc(F)cc1F [Example 26, N-[(3,5-difluoropyridin-2-yl)methyl]-3-(methoxymethyl)-1-({4-[(2-oxopyridin-1-yl)methyl]phenyl}methyl)pyrazole-4-carboxamide]
pIC50 [1]: 5.75 | pIC50 [2]: < 4.40 | pIC50 [3]: < 4.40 | pIC50 [4]: < 4.40

COCc1nn(Cc2ccc(Cn3ccccc3=O)cc2)cc1C(=O)NCc1nc(C)ccc1F [Example 27, N-[(3-fluoro-6-methylpyridin-2-yl)methyl]-3-(methoxymethyl)-1-({4-[(2-oxopyridin-1-yl)methyl]phenyl}methyl)pyrazole-4-carboxamide]
pIC50 [1]: 6.11 | pIC50 [2]: < 4.40 | pIC50 [3]: < 4.40 | pIC50 [4]: < 4.40

COCc1nn(Cc2ccc(Cn3ccccc3=O)cc2)cc1C(=O)NCc1nccc(C)c1F [Example 28, N-[(3-fluoro-4-methylpyridin-2-yl)methyl]-3-(methoxymethyl)-1-({4-[(2-oxopyridin-1-yl)methyl]phenyl}methyl)pyrazole-4-carboxamide]
pIC50 [1]: 6.79 | pIC50 [2]: < 4.40 | pIC50 [3]: < 4.40 | pIC50 [4]: < 4.40

COCc1nn(Cc2ccc(Cn3ccccc3=O)cc2)cc1C(=O)NCc1nccc(C)c1Cl [Example 29, N-[(3-chloro-4-methylpyridin-2-yl)methyl]-3-(methoxymethyl)-1-({4-[(2-oxopyridin-1-yl)methyl]phenyl}methyl)pyrazole-4-carboxamide]
pIC50 [1]: 6.66 | pIC50 [2]: < 4.40 | pIC50 [3]: < 4.40 | pIC50 [4]: < 4.40

COCc1nn(Cc2ccc(Cn3ccccc3=O)cc2)cc1C(=O)NCc1cc(OC)n(C)n1 [Example 31, N-[(5-methoxy-1-methylpyrazol-3-yl)methyl]-3-(methoxymethyl)-1-({4-[(2-oxopyridin-1-yl)methyl]phenyl}methyl)pyrazole-4-carboxamide]
pIC50 [1]: 6.34 | pIC50 [2]: < 4.40 | pIC50 [3]: < 4.40 | pIC50 [4]: < 4.40

COCc1nn(Cc2ccc(Cn3ccccc3=O)cc2)cc1C(=O)NCc1nn(C)cc1Cl [Example 34, N-[(4-chloro-1-methylpyrazol-3-yl)methyl]-3-(methoxymethyl)-1-({4-[(2-oxopyridin-1-yl)methyl]phenyl}methyl)pyrazole-4-carboxamide]
pIC50 [1]: 6.15 | pIC50 [2]: < 4.40 | pIC50 [3]: < 4.40

COCc1nn(Cc2ccc(Cn3ccccc3=O)cc2)cc1C(=O)NCc1cccc(OC)c1C#N [Example 38, N-[(2-cyano-3-methoxyphenyl)methyl]-3-(methoxymethyl)-1-({4-[(2-oxopyridin-1-yl)methyl]phenyl}methyl)pyrazole-4-carboxamide]
pIC50 [1]: 6.52 | pIC50 [2]: < 5.40 | pIC50 [3]: < 4.40 | pIC50 [4]: < 5.40

COCc1nn(Cc2ccc(Cn3ccccc3=O)cc2)cc1C(=O)NCc1cc(OC)ccc1C [Example 41, N-[(5-methoxy-2-methylphenyl)methyl]-3-(methoxymethyl)-1-({4-[(2-oxopyridin-1-yl)methyl]phenyl}methyl)pyrazole-4-carboxamide]
pIC50 [1]: 6.83 | pIC50 [2]: < 5.40 | pIC50 [3]: < 4.40 | pIC50 [4]: < 5.40

COCc1nn(Cc2ccc(Cn3ccccc3=O)cc2)cc1C(=O)NCc1cc(OC)cc(OC)c1 [Reference Example A, N-(3,5-Dimethoxybenzyl)-3-(methoxymethyl)-1-(4-((2-oxopyridin-1(2H)-yl)methyl)benzyl)-1H-pyrazole-4-carboxamide, reference compound]
pIC50 [2]: < 5.00 | pIC50 [3]: < 4.40

COCc1nn(Cc2cnc3cc(Cl)ccc3c2)cc1C(=O)NCc1cccc(OC)c1F [Reference Example C, 1-(7-Chloro-quinolin-3-ylmethyl)-3-methoxymethyl-1H-pyrazole-4-carboxylic acid 2-fluoro-3-methoxy-benzylamide, reference compound]
pIC50 [2]: < 5.00 | pIC50 [3]: < 4.40

COCc1nn(Cc2ccc(Cn3ccccc3=O)cc2)cc1C(=O)NCc1nccc(OC)c1F [Reference Example D, 3-Methoxymethyl-1-[4-(2-oxo-2H-pyridin-1-ylmethyl)-benzyl]-1H-pyrazole-4-carboxylic acid (3-fluoro-4-methoxy-pyridin-2-ylmethyl)-amide, reference compound]
pIC50 [2]: < 4.40 | pIC50 [3]: < 4.40 | pIC50 [4]: < 4.40

COCc1nn(Cc2ccc(Cn3ccccc3=O)cc2)cc1C(=O)NCc1c(C#N)ccc(OC)c1F [Reference Example E, 3-Methoxymethyl-1-[4-(2-oxo-2H-pyridin-1-ylmethyl)-benzyl]-1H-pyrazole-4-carboxylic acid 6-cyano-2-fluoro-3-methoxy-benzylamide, reference compound]
pIC50 [3]: < 4.40 | pIC50 [4]: < 4.40

COCc1nn(Cc2ccc(Cn3ccccc3=O)cc2)cc1C(=O)NCc1c(F)ccc(OC)c1C(F)F [Reference Example F, 3-Methoxymethyl-1-[4-(2-oxo-2H-pyridin-1-ylmethyl)-benzyl]-1H-pyrazole-4-carboxylic acid 2-difluoromethyl-6-fluoro-3-methoxy-benzylamide, reference compound]
pIC50 [3]: < 4.40

COc1cccc(CNC(=O)c2cn(Cc3ccc(N4CCCC4)nc3)nc2C(F)(F)F)c1F [Reference Example G, 1-(6-Pyrrolidin-1-yl-pyridin-3-ylmethyl)-3-trifluoromethyl-1H-pyrazole-4-carboxylic acid 2-fluoro-3-methoxy-benzylamide, reference compound]
pIC50 [2]: < 5.00 | pIC50 [3]: < 4.40
